Results as given in the supplement of paper PMC10331698.
± gives the standard deviation of the averaged measurements.

Legend:
Experiment in all cases: level (log10 ratio to DMSO vehicle control); higher = higher biomarker level / cell amount than vehicle control
[1] = compound: C=C(C)C(=O)OCCC(F)(F)C(F)(F)C(F)(F)C(F)(F)C(F)(F)C(F)(F)F [6:2 Fluorotelomer methacrylate]; conditions: in DMSO
Method: (§1)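 BioMAP Diversity Plus panel of 12 human primary cell co-culture systems (3C, 4H, LPS, SAg, BT, BF4T, BE3C, CASM3C, HDF3CGF, KF3CT, MyoF, Mphg). Compounds were added 1 h before stimulation and left for 24 h (MyoF 48 h; BT 72 h for soluble read-outs or 6 d for IgG). Biomarkers were read by ELISA, cytotoxicity by SRB, PBMC viability and proliferation by Alamar Blue. Each well value was divided by the mean of 8 DMSO control wells on the same plate and log10 transformed; duplicate blinded samples were tested at 4 concentrations.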

[2] = compound: OCC(F)(F)C(F)(F)C(F)(F)CO [Hexafluoroamylene glycol]; conditions: in DMSO
Method: as §1

[3] = compound: COC(=O)C(F)(F)C(F)(F)OC(F)(C(F)(F)F)C(F)(F)OC(F)=C(F)F [Methyl perfluoro(3-(1-ethenyloxypropan-2-yloxy)propanoate)]; conditions: in DMSO
Method: as §1

[4] = compound: NC(=O)C(F)(F)C(F)(F)C(F)(F)C(F)(F)F [Nonafluoropentanamide]; conditions: in DMSO
Method: as §1

[5] = compound: NS(=O)(=O)C(F)(F)C(F)(F)C(F)(F)C(F)(F)C(F)(F)C(F)(F)F [Perfluorohexanesulfonamide]; conditions: in DMSO
Method: as §1

[6] = compound: NC(=O)C(F)(F)C(F)(F)C(F)(F)C(F)F; conditions: in DMSO
Method: as §1

[7] = compound: FC(F)(F)C(F)(F)C(F)(F)C(F)(F)C(F)(F)C(F)(F)C(F)(F)I [1-Iodopentadecafluoroheptane]; conditions: in DMSO
Method: as §1

[8] = compound: O=S(=O)(O)C(F)(F)C(F)(F)C(F)(F)C(F)(F)C(F)(F)C(F)(F)C(F)(F)C(F)(F)C(F)(F)C(F)(F)F [Sodium perfluorodecanesulfonate]; conditions: in DMSO
Method: as §1

[9] = compound: FC(F)(F)C(F)(F)CNCC(F)(F)C(F)(F)F [Bis(1H,1H-perfluoropropyl)amine]; conditions: in DMSO
Method: as §1

[10] = compound: O=S(=O)(O)CCC(F)(F)C(F)(F)C(F)(F)C(F)(F)C(F)(F)C(F)(F)F [6:2 Fluorotelomer sulfonic acid]; conditions: in DMSO
Method: as §1

[11] = compound: O=S(=O)(F)C(F)(F)C(F)(F)C(F)(F)C(F)(F)C(F)(F)C(F)(F)C(F)(F)C(F)(F)F [Perfluorooctanesulfonyl fluoride]; conditions: in DMSO
Method: as §1

[12] = compound: FC(F)(F)C(F)(F)C(F)(F)CI [Heptafluorobutyl iodide]; conditions: in DMSO
Method: as §1

[13] = compound: O=C(O)C(F)(F)C(F)(F)C(F)(F)C(F)(F)C(F)(F)C(F)(F)C(F)(F)C(F)(F)C(F)(F)C(F)F [11-H-Perfluoroundecanoic acid]; conditions: in DMSO
Method: as §1

[14] = compound: O=S(=O)(Cl)C(F)(F)C(F)(F)C(F)(F)C(F)(F)C(F)(F)C(F)(F)C(F)(F)C(F)(F)F [Perfluoro-1-octanesulfonyl chloride]; conditions: in DMSO
Method: as §1

[15] = compound: FC(F)(F)C(F)(F)C(F)(F)C(F)(F)C(F)(F)C(F)(F)CC1CO1 [3-(Perfluorohexyl)-1,2-epoxypropane]; conditions: in DMSO
Method: as §1

[16] = compound: FC(F)(F)C(F)(F)C(F)(F)CC1CO1 [1H,1H-Heptafluorobutyl epoxide]; conditions: in DMSO
Method: as §1

[17] = compound: O=C(O)C=CC(F)(C(F)(F)F)C(F)(F)F [3-(Perfluoroisopropyl)-2-propenoic acid]; conditions: in DMSO
Method: as §1

[18] = compound: NC(=O)C(F)(F)C(F)(F)C(F)(F)C(F)(F)C(N)=O [Octafluoroadipamide]; conditions: in DMSO
Method: as §1

[19] = compound: C=CC(=O)OCC(F)(F)C(F)(F)C(F)(F)COC(=O)C=C [1H,1H,5H,5H-Perfluoro-1,5-pentanediol diacrylate]; conditions: 6700 nM; in DMSO
Method: as §1

Test System: 3C:HLA-DR
- level (log10) ([1]; 6700 nM): -0.0015 ± 0.0092
- level (log10) ([1]; 20000 nM): -0.007 ± 0.0071
- level (log10) ([1]; 60000 nM): -0.005 ± 0.0099
- level (log10) ([2]; 6700 nM): -0.0225 ± 0.0064
- level (log10) ([2]; 20000 nM): -0.0205 ± 0.00071
- level (log10) ([2]; 60000 nM): -0.015 ± 0.0042
- level (log10) ([3]; 6700 nM): 0.002 ± 0.0014
- level (log10) ([3]; 20000 nM): 0.0075 ± 0.0078
- level (log10) ([4]; 6700 nM): -0.0095 ± 0.054
- level (log10) ([4]; 20000 nM): -0.007 ± 0.0099
- level (log10) ([4]; 60000 nM): 0.003 ± 0.0014
- level (log10) ([5]; 6700 nM): -0.017 ± 0.0014
- level (log10) ([5]; 20000 nM): -0.0555 ± 0.00071
- level (log10) ([5]; 60000 nM): -0.125 ± 0.011
- level (log10) ([6]; 6700 nM): -0.006 ± 0.02
- level (log10) ([6]; 20000 nM): -0.002 ± 0.016
- level (log10) ([6]; 60000 nM): -0.005 ± 0.014
- level (log10) ([7]; 6700 nM): -0.019 ± 0.0057
- level (log10) ([7]; 20000 nM): -0.0075 ± 0.015
- level (log10) ([8]; 1500 nM): -0.011 ± 0.011
- level (log10) ([8]; 4400 nM): -0.021 ± 0.02
- level (log10) ([8]; 13000 nM): -0.018 ± 0.0085
- level (log10) ([8]; 40000 nM): -0.0615 ± 0.016
- level (log10) ([9]; 6700 nM): 0.006 ± 0.0028
- level (log10) ([9]; 20000 nM): 0.0005 ± 0.021
- level (log10) ([9]; 60000 nM): 0.0145 ± 0.03
- level (log10) ([10]; 6700 nM): -0.0075 ± 0.025
- level (log10) ([10]; 20000 nM): -0.0145 ± 0.0078
- level (log10) ([10]; 60000 nM): -0.0065 ± 0.0035
- level (log10) ([11]; 6700 nM): -0.0045 ± 0.00071
- level (log10) ([11]; 20000 nM): -0.004 ± 0.0028
- level (log10) ([11]; 60000 nM): -0.003 ± 0.011
- level (log10) ([12]; 6700 nM): -0.0255 ± 0.013
- level (log10) ([12]; 20000 nM): -0.0125 ± 0.016
- level (log10) ([12]; 60000 nM): -0.0045 ± 0.013
- level (log10) ([13]; 6700 nM): 0.0055 ± 0.039
- level (log10) ([13]; 20000 nM): -0.001 ± 0.062
- level (log10) ([14]; 6700 nM): -0.0285 ± 0.0092
- level (log10) ([14]; 20000 nM): -0.013 ± 0.011
- level (log10) ([14]; 60000 nM): -0.0255 ± 0.056
- level (log10) ([15]; 6700 nM): -0.0005 ± 0.0035
- level (log10) ([15]; 20000 nM): -0.006 ± 0.016
- level (log10) ([15]; 60000 nM): 0.0025 ± 0.016
- level (log10) ([16]; 6700 nM): 0.017
- level (log10) ([16]; 20000 nM): 0.002
- level (log10) ([16]; 60000 nM): 0.011 ± 0.0042
- level (log10) ([17]; 6700 nM): 0.0095 ± 0.005
- level (log10) ([17]; 20000 nM): -0.0135 ± 0.022
- level (log10) ([17]; 60000 nM): -0.003 ± 0.028
- level (log10) ([18]; 6700 nM): -0.0085 ± 0.023
- level (log10) ([18]; 20000 nM): 0.0055 ± 0.0021
- level (log10) ([18]; 60000 nM): 0.024 ± 0.014
- level (log10) [19]: -0.092 ± 0.078

Test System: 4H:CCL2/MCP-1
- level (log10) ([1]; 6700 nM): -0.009 ± 0.0014
- level (log10) ([1]; 20000 nM): 0.007 ± 0.0085
- level (log10) ([1]; 60000 nM): -0.006 ± 0.0057
- level (log10) ([2]; 6700 nM): 0.0255 ± 0.022
- level (log10) ([2]; 20000 nM): -0.02 ± 0.027
- level (log10) ([2]; 60000 nM): 0.009 ± 0.0099
- level (log10) ([3]; 6700 nM): -0.0055 ± 0.019
- level (log10) ([3]; 20000 nM): 0.016 ± 0.064
- level (log10) ([4]; 6700 nM): -0.024 ± 0.017
- level (log10) ([4]; 20000 nM): -0.017
- level (log10) ([4]; 60000 nM): -0.004 ± 0.013
- level (log10) ([5]; 6700 nM): 0.002 ± 0.027
- level (log10) ([5]; 20000 nM): -0.033 ± 0.0028
- level (log10) ([5]; 60000 nM): -0.136 ± 0.031
- level (log10) ([6]; 6700 nM): -0.0155 ± 0.032
- level (log10) ([6]; 20000 nM): -0.039 ± 0.031
- level (log10) ([6]; 60000 nM): 0.029 ± 0.04
- level (log10) ([7]; 6700 nM): -0.015 ± 0.033
- level (log10) ([7]; 20000 nM): 0.0095 ± 0.037
- level (log10) ([8]; 1500 nM): -0.0285 ± 0.0078
- level (log10) ([8]; 4400 nM): -0.045 ± 0.0057
- level (log10) ([8]; 13000 nM): -0.0725 ± 0.028
- level (log10) ([8]; 40000 nM): -0.05 ± 0.0057
- level (log10) ([9]; 6700 nM): -0.0345 ± 0.012
- level (log10) ([9]; 20000 nM): -0.035 ± 0.0042
- level (log10) ([9]; 60000 nM): -0.0105 ± 0.026
- level (log10) ([10]; 6700 nM): -0.0135 ± 0.056
- level (log10) ([10]; 20000 nM): 0.0065 ± 0.029
- level (log10) ([10]; 60000 nM): -0.02 ± 0.011
- level (log10) ([11]; 6700 nM): 0
- level (log10) ([11]; 20000 nM): -0.0195 ± 0.0035
- level (log10) ([11]; 60000 nM): -0.0005 ± 0.023
- level (log10) ([12]; 6700 nM): -0.007 ± 0.027
- level (log10) ([12]; 20000 nM): -0.0215 ± 0.011
- level (log10) ([12]; 60000 nM): -0.0265 ± 0.021
- level (log10) ([13]; 6700 nM): -0.0625 ± 0.021
- level (log10) ([13]; 20000 nM): -0.0615 ± 0.013
- level (log10) ([14]; 6700 nM): -0.0125 ± 0.021
- level (log10) ([14]; 20000 nM): -0.0475 ± 0.0035
- level (log10) ([14]; 60000 nM): -0.11 ± 0.12
- level (log10) ([15]; 6700 nM): 0.03 ± 0.0099
- level (log10) ([15]; 20000 nM): -0.0175 ± 0.0064
- level (log10) ([15]; 60000 nM): 0.0125 ± 0.019
- level (log10) ([16]; 6700 nM): -0.033 ± 0.013
- level (log10) ([16]; 20000 nM): -0.018 ± 0.025
- level (log10) ([16]; 60000 nM): 0.025 ± 0.042
- level (log10) ([17]; 6700 nM): 0.008 ± 0.025
- level (log10) ([17]; 20000 nM): -0.0105 ± 0.022
- level (log10) ([17]; 60000 nM): 0.0005 ± 0.0064
- level (log10) ([18]; 6700 nM): -0.013 ± 0.0014
- level (log10) ([18]; 20000 nM): -0.023 ± 0.0085
- level (log10) ([18]; 60000 nM): -0.0005 ± 0.019
- level (log10) [19]: -0.058 ± 0.0028
